Assay results published in patent publication US9504676B2, “Molecules inhibiting a metabolic pathway involving the Syk protein tyrosine kinase and method for identifying said molecules” (CENTRE NATIONAL DE LA RECHERCHE SCIENTIFIQUE, priority 2008, dated 2016).
pIC50: −log10 of the molar value.

Molecular target: T1, murine Syk tyrosine kinase protein (GST:Syk 6-242) (Mus musculus, UniProt P48025)
T1 construct: made in house
Assay: ADA method: displacement of the binding of scFv G4G11 with Syk (ELISA)
Details: for inhibition at 10 µM: small molecules at 10 μM, scFv G4G11 100 nM, read-out: In vit. inhib.: mean inhibition % of the binding of scFv G4G11 with Syk in the ADA method
Method in brief: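 GST:Syk 6-242 (murine) was immobilised at 10 μg ml^−1 and pre-incubated 1 h at ambient temperature with compounds at 10 μM final in PBS. scFv G4G11 was then added at 100 nM for 1 h. Bound scFv was detected via its C-terminal c-myc tag with HRP-9E10, and % inhibition was taken from signals with versus without compound.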

Row | Compound | inhibition at 10 µM [%] | pIC50 (ADA method, read-out: estimated IC50 for competing with the binding of scFv G4G11 with Syk)
1 | C=CCn1c(CNC(=O)c2cccc(C)c2)cnc1SCC(=O)Nc1cccc(C(=O)OC(C)C)c1 [Molecule 75] | 27 | –
2 | COc1ccc(S(=O)(=O)N(CCc2ccccc2)CC(=O)Nc2ccc(C(N)=O)cc2)cc1 [Molecule 18] | 63 | –
3 | COc1ccc(C)cc1NC(=O)c1ccc(CN2CCC(Cc3ccccc3)CC2)cc1 [Molecule 17, 4-[(4-benzyl-1-piperidinyl)methyl}-N-(2-methoxy-5-methylphenyl)benzamide] | 63 | –
4 | CCOc1ccc(NC(=O)CC2C(=O)N(c3ccc(OC)cc3)C(=S)N2CCN2CCOCC2)cc1 (stereo not drawn) [Molecule 84, N-(4-ethoxyphenyl)-2-{1-(4-methoxyphenyl)-3-[2-(4-morpholinyl)ethyl]-5-oxo-2-thioxo-4-imidazolidinyl}acetamide] | 19 | –
5 | CCOC(=O)c1ccc(NC(=O)CSc2nnc(-c3ccco3)c(-c3ccco3)n2)cc1 [Molecule 54, ethyl 4-({[(5,6-di-2-furyl-1,2,4-triazin-3-yl)thio]acetyl}amino)benzoate] | 43 | –
6 | COc1cc(-c2nnc(SCC(=O)Nc3ccc(Cl)cc3)n2CCc2ccccc2)cc(OC)c1OC [Molecule 59] | 40 | –
7 | COc1cccc(C2C(C(=O)c3ccc(C)cc3)=C(O)C(=O)N2CCCN2CCOCC2)c1 (stereo not drawn) [Molecule 4, 3-hydroxy-5-(3-methoxyphenyl)-4-(4-methylbenzoyl)-1-[3-(4-morpholinyl)propyl]-1,5-dihydro-2H-pyrrol-2-one] | 79.5 | –
8 | CCOC(=O)c1sc(N2C(=O)C(O)=C(C(=O)c3ccc(F)cc3)C2c2ccc(C)cc2)nc1C (stereo not drawn) [Molecule 10, ethyl 2-[3-(4-fluorobenzoyl)-4-hydroxy-2-(4-methylphenyl)-5-oxo-2,5-dihydro-1H-pyrrol-1-yl]-4-methyl-1,3-thiazole-5-carboxylate] | 71 | –
9 | CCOC(=O)c1ccc(N2C(=O)C(O)=C(C(=O)c3ccccc3)C2c2ccc(ON)cc2OC)cc1 (stereo not drawn) [Molecule 6] | 73.5 | –
10 | CCn1c(CCC(=O)c2ccc(Cl)cc2)nnc1SCC(=O)Nc1ccc(Br)c(C)c1C [Molecule 82] | 20 | –
11 | O=C(NCc1nnc(NCc2nc3ccccc3c(=O)[nH]2)n1-c1ccccc1)c1ccccc1F [Molecule 29] | 53.5 | –
12 | C=CCn1c(SCC(=O)Nc2cccc(OC)c2)nnc1C(C)NC(=O)c1ccccc1 (stereo not drawn) [Molecule 66, N-{1-[4-allyl-5-({2-[(3-methoxyphenyl)amino]-2-oxoethyl}thio)-4H-1,2,4-triazol-3-yl]ethyl} benzamide] | 35 | –
13 | COc1ccc(C2C(C(=O)c3cccs3)=C(O)C(=O)N2CCCn2ccnc2)c(OC)c1 (stereo not drawn) [Molecule 2] | 81 | –
14 | CCOC(=O)C1=C(C)NC2=C(C(=O)c3ccccc32)C1c1cc(Br)ccc1OCC(=O)O (stereo not drawn) [Molecule 3, {4-bromo-2-[3-(ethoxy carbonyl)-2-methyl-5-oxo-4,5-dihydro-1H-indeno[1,2-b]pyridin-4-yl]phenoxy} acetic acid] | 81 | –
15 | Cc1cc(C(=O)Nc2ccccc2C(=O)O)ccc1NC(=O)COc1ccc(C(C)C)cc1 [Molecule 49, 2-[(4-{[(4-isopropylphenoxy)acetyl]amino}-3-methylbenzoyl)amino] benzoic acid] | 46.5 | –
16 | CCOC(=O)c1ccc(NC(=O)CC2C(=O)N(c3ccc(Cl)cc3)C(=S)N2Cc2cccnc2)cc1 (stereo not drawn) [Molecule 61] | 39.5 | –
17 | COc1ccccc1C(=O)Nc1ccc(-c2nnc(SCC(=O)c3ccccc3)n2C)cc1 [Molecule 15, 2-methoxy-N-(4-(4-methyl-5-[(2-oxo-2-phenylethyl)thio]-4H-1,2,4-triazol-3-yl)phenyl)benzamide] | 67.5 | –
18 | O=C(C1=C(O)C(=O)N(Cc2cccnc2)C1c1cccc(Oc2ccccc2)c1)c1ccc(Cl)cc1 (stereo not drawn) [Molecule 1, 4-(4-chlorobenzoyl)-3-hydroxy-5-(3-phenoxyphenyl)-1-(3-pyridinylmethyl)-1,5-dihydro-2H-pyrrol-2-one] | 86.5 | –
19 | O=C(Nc1ccccc1)c1ccc(NCCN2CCOCC2)c(S(=O)(=O)N2CCOCC2)c1 [Molecule 46, 4-{[2-(4-morpholinyl)ethyl]amino}-3-(4-morpholinylsulphonyl)-N-phenylbenzamide] | 48 | –
20 | COC(=O)c1ccccc1-c1ccc(/C=C2/SC(=S)N(Cc3ccccc3)C2=O)o1 [Molecule C-13, methyl 2-{5-[(3-benzyl-4-oxo-2-thioxo-1,3-thiazolidin-5-ylidene)methyl]-2-furyl}benzoate] | 81 | ~5.40
